Test results published in the supplement of paper PMC8671470.
Counter-ions that a name gives are not always drawn.

Assays:
Conditions in all cases: 72 h
HL-60 [1] = test: cell viability (% survival relative to DMSO control); higher = less cytotoxic
How it was run: (§1)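 A rescreen of the full library used HL-60 cells in RPMI 1640 with 10% FBS on 384-well plates, run in duplicate at five tenfold concentrations (1–10,000 nM). Each screen included DMSO or 100 nM of one of three metabolic inhibitors and ran 72 h at 37 °C, 5% CO2. CellTiter-Glo viability was scaled between DMSO and 10 μM proteasome-inhibitor wells. Any area under the curve comes from four-parameter log-logistic fits with drc and PharmacoGx.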

HL-60 [2] = test: area under dose-response curve (viability, 1 nM-10 uM) (fraction (0-1)); higher = more sensitive
How it was run: as §1

[3] = system: myeloid leukemia patient primary cells Pat.9; test: cell viability (% survival relative to DMSO control); higher = less cytotoxic
How it was run: (§2)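 Mononuclear cells from patients with AML or CML were thawed, purified on Ficoll and placed in RPMI 1640 with 10% FBS at 10,000 cells/well on 384-well plates. The plates came pre-printed with 70 compounds at five tenfold concentrations spanning 1–10,000 nM, in duplicate, and cells were exposed for 72 h. CellTiter-Glo gave viability, scaled between DMSO wells and wells with 10 μM proteasome inhibitor. Where reported, area under the curve was obtained from log-logistic fits with four parameters using the drc and PharmacoGx R packages.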

[4] = system: myeloid leukemia patient primary cells Pat.4; test: as above
How it was run: as §2

[5] = system: myeloid leukemia patient primary cells Pat.7; test: as above
How it was run: as §2

[6] = system: myeloid leukemia patient primary cells Pat.14; test: as above
How it was run: as §2

[7] = system: myeloid leukemia patient primary cells Pat.12; test: as above
How it was run: as §2

[8] = system: myeloid leukemia patient primary cells Pat.10; test: as above
How it was run: as §2

[9] = system: myeloid leukemia patient primary cells Pat.8; test: as above
How it was run: as §2

[10] = system: myeloid leukemia patient primary cells Pat.1; test: as above
How it was run: as §2

[11] = system: myeloid leukemia patient primary cells Pat.3; test: as above
How it was run: as §2

[12] = system: myeloid leukemia patient primary cells Pat.15; test: as above
How it was run: as §2

[13] = system: myeloid leukemia patient primary cells Pat.5; test: as above
How it was run: as §2

[14] = system: myeloid leukemia patient primary cells Pat.2; test: as above
How it was run: as §2

[15] = system: myeloid leukemia patient primary cells Pat.6; test: as above
How it was run: as §2

[16] = system: myeloid leukemia patient primary cells Pat.11; test: as above
How it was run: as §2

[17] = system: myeloid leukemia patient primary cells Pat.13; test: as above
How it was run: as §2

[18] = system: myeloid leukemia patient primary cells Pat.9; test: area under dose-response curve (viability, 1 nM-10 uM) (fraction (0-1)); higher = more sensitive
Procedure: (§3)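 AUC (0–1, higher = more sensitive) of the 5-point dose–response (1 nM–10 µM, 72 h, CellTiter-Glo) in primary AML/CML patient mononuclear cells. 0.030103 is the floor for inactive compounds.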

[19] = system: myeloid leukemia patient primary cells Pat.4; test: as above
Procedure: as §3

[20] = system: myeloid leukemia patient primary cells Pat.7; test: as above
Procedure: as §3

[21] = system: myeloid leukemia patient primary cells Pat.14; test: as above
Procedure: as §3

[22] = system: myeloid leukemia patient primary cells Pat.12; test: as above
Procedure: as §3

[23] = system: myeloid leukemia patient primary cells Pat.10; test: as above
Procedure: as §3

[24] = system: myeloid leukemia patient primary cells Pat.8; test: as above
Procedure: as §3

[25] = system: myeloid leukemia patient primary cells Pat.1; test: as above
Procedure: as §3

[26] = system: myeloid leukemia patient primary cells Pat.3; test: as above
Procedure: as §3

[27] = system: myeloid leukemia patient primary cells Pat.15; test: as above
Procedure: as §3

[28] = system: myeloid leukemia patient primary cells Pat.5; test: as above
Procedure: as §3

[29] = system: myeloid leukemia patient primary cells Pat.2; test: as above
Procedure: as §3

[30] = system: myeloid leukemia patient primary cells Pat.6; test: as above
Procedure: as §3

[31] = system: myeloid leukemia patient primary cells Pat.11; test: as above
Procedure: as §3

[32] = system: myeloid leukemia patient primary cells Pat.13; test: as above
Procedure: as §3

SHI-1 [33] = test: cell viability (% survival relative to DMSO control, bortezomib = 0%); higher = less cytotoxic
How it was run: (§4)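 Percent survival is reported as the mean of duplicate wells. Cells from 10 AML and 5 CML lines were plated in 384-well plates containing compounds at 1, 10, 100, 1000 or 10000 nM and kept for 72 h at 37 °C in 5% CO2. Readout used CellTiter-Glo luminescence, scaled so that vehicle equals 100% and a 10 µM positive control equals 0%.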

LAMA-84 [34] = test: as above
How it was run: as §4

KCL-22 [35] = test: as above
How it was run: as §4

THP-1 [36] = test: as above
How it was run: as §4

KG-1 [37] = test: as above
How it was run: as §4

HL-60 [38] = test: as above
How it was run: as §4

BV-173 [39] = test: as above
How it was run: as §4

MV4-11 [40] = test: as above
How it was run: as §4

MOLM-13 [41] = test: as above
How it was run: as §4

HEL [42] = test: as above
How it was run: as §4

NOMO-1 [43] = test: as above
How it was run: as §4

ML-2 [44] = test: as above
How it was run: as §4

KU-812 [45] = test: as above
How it was run: as §4

Mono-Mac-6 [46] = test: as above
How it was run: as §4

K-562 [47] = test: as above
How it was run: as §4

SHI-1 [48] = system: SHI-1
How it was run: (§5)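 In 384-well plates holding acoustically pre-printed compounds at five tenfold doses from 1 to 10,000 nM, in duplicate, fifteen myeloid leukaemia cell lines were grown in RPMI 1640 for 72 h at 37 °C with 5% CO2. Luminescent ATP viability was scaled between vehicle and a positive control at 10 µM. The IC50 was then taken from log-logistic dose–response fits with four parameters.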

LAMA-84 [49] = system: LAMA-84
How it was run: as §5

KCL-22 [50] = system: KCL-22
How it was run: as §5

THP-1 [51] = system: THP-1
How it was run: as §5

KG-1 [52] = system: KG-1
How it was run: as §5

HL-60 [53] = system: HL-60
How it was run: as §5

BV-173 [54] = system: BV-173
How it was run: as §5

MV4-11 [55] = system: MV4-11
How it was run: as §5

MOLM-13 [56] = system: MOLM-13
How it was run: as §5

HEL [57] = system: HEL
How it was run: as §5

NOMO-1 [58] = system: NOMO-1
How it was run: as §5

ML-2 [59] = system: ML-2
How it was run: as §5

KU-812 [60] = system: KU-812
How it was run: as §5

Mono-Mac-6 [61] = system: Mono-Mac-6
How it was run: as §5

K-562 [62] = system: K-562
How it was run: as §5

Cn1cc(-c2ccncc2)c(-c2ccc(OCc3ccc4ccccc4n3)cc2)n1
cell viability [%], HL-60 [1]
Conditions	0.001 µM	0.01 µM	0.1 µM	1 µM	10 µM
co-treatment: AZD3965 100 nM	94.1	101	101	96.7	103
co-treatment: DMSO vehicle	99.1	94.8	102	98.248	101
co-treatment: GSK2194069 100 nM	103	101	107	90.9	81.8
co-treatment: pictilisib 100 nM	98.7	101	114	94.4	107

HL-60 [2]
Conditions	area under dose-response curve
co-treatment: AZD3965 100 nM	< 0.0301
co-treatment: DMSO vehicle	< 0.0301
co-treatment: GSK2194069 100 nM	0.05
co-treatment: pictilisib 100 nM	0.05

CN(C)C(=O)n1nnnc1Cc1ccc(-c2ccccc2)cc1
cell viability [%]
Conditions	1 nM	10 nM	100 nM	1000 nM	10000 nM
[3]	64	5.6	60.2	9.03	0.492
[4]	97.2	81	84.8	> 100	2.63
[5]	> 100	38.7	73.7	24.8	13.2
[6]	97.8	63.7	95.5	32	0.671
[7]	94.7	91.7	90.7	93	41.2
[8]	96.5	75.2	> 100	20.7	15.5
[9]	99.4	97.5	71.9	85.5	4.49
[10]	98.5	74.4	89.4	87.9	4.27
[11]	> 100	64.8	82.7	30.3	2.63
[12]	94.8	96	96.2	89.5	29.8
[13]	60.8	1.18	63	1.33	2.24
[14]	97.7	78.6	> 100	99.1	37.3
[15]	> 100	70.8	97.7	> 100	21.8
[16]	> 100	87.4	91.7	93.6	22
[17]	84.1	60.2	92.1	87.3	7.43

Conditions	area under dose-response curve
[18]	0.766
[19]	0.115
[20]	0.331
[21]	0.277
[22]	0.044
[23]	0.298
[24]	0.132
[25]	0.124
[26]	0.278
[27]	0.0943
[28]	0.798
[29]	0.0497
[30]	0.0748
[31]	0.0778
[32]	0.105

Cc1cc(CS(=O)(=O)c2ccccc2)cc(OCc2ccc(CN3CCC[C@@H]3CO)cc2)c1 [PF-543 hydrochloride]
cell viability [%]
Conditions	1 nM	10 nM	100 nM	1000 nM	10000 nM
BV-173 [39]	83.7	103	152	87.8	56.7
HEL [42]	92	88.6	105	88.1	94
HL-60 [38]	118	92.2	119	83.7	79.8
K-562 [47]	90.4	113	131	91.1	40.4
KCL-22 [35]	91.5	94.5	122	82.5	84.9
KG-1 [37]	92.1	102	114	111	84.3
KU-812 [45]	97.5	91.6	97.7	101	61
LAMA-84 [34]	108	91.9	103	93.9	71.5
ML-2 [44]	89.8	97.3	130	91	88.5
MOLM-13 [41]	72.9	110	88.8	117	79.6
MV4-11 [40]	83.5	104	119	103	65.5
Mono-Mac-6 [46]	89.6	84.7	101	89.8	82.9
NOMO-1 [43]	89.2	94.9	103	101	93
SHI-1 [33]	82.3	109	100	84.8	87.9
THP-1 [36]	89.7	95.5	111	94.8	96.5

Conditions	IC50 (cell viability) [µM]
BV-173 [54]	8.45
HEL [57]	> 10
HL-60 [53]	> 10
K-562 [62]	4.85
KCL-22 [50]	> 10
KG-1 [52]	> 10
KU-812 [60]	> 10
LAMA-84 [49]	> 10
ML-2 [59]	> 10
MOLM-13 [56]	> 10
MV4-11 [55]	> 10
Mono-Mac-6 [61]	> 10
NOMO-1 [58]	> 10
SHI-1 [48]	> 10
THP-1 [51]	> 10
